# Measurements from publication PMC11148045, “Structural basis for recognition of 26RFa by the pyroglutamylated RFamide peptide receptor” (Cell Discovery, 2024).
# No end group written: not given here.
# Assays:
# Experiment in all cases: 26RFa-induced calcium mobilization, receptor mutants
# Type in all cases: cell-based
# QRFPR mutants [1] = molecular target: T1, QRFPR mutants (Homo sapiens, UniProt Q96P65, D307A); details: HEK293, QRFPR D307^7.27A; HEK293, Fluo-4; mean ± S.E.M., n ≥ 3
# T1 construct: expressed in transfected cells; host or cells: HEK293, transient transfection by electroporation
# T1 sequence (Q96P65 whole entry D307A): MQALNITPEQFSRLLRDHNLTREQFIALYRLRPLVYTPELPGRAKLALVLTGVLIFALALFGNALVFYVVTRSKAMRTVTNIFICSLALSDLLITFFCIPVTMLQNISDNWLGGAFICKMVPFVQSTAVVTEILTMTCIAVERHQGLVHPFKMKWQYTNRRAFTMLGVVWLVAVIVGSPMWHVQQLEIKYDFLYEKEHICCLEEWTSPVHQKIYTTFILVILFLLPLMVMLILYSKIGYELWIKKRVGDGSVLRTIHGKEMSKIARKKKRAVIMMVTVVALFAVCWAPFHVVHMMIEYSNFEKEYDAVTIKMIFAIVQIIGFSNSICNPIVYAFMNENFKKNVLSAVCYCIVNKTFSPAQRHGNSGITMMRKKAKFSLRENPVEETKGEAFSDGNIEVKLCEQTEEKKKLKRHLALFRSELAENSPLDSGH
# Method: (§1) The gene encoding the WT QRFPR, PrPRR, KISS1R, NPFF1R, or NPFF2R was subcloned into the pcDNA3.0 vector with the addition of an N-terminal HA tag. All of the mutations used for functional studies were generated by QuickChange PCR and verified by DNA sequencing.
# (§2) HEK293 cells were obtained from ATCC (Manassas, VA, USA) and cultured in DMEM supplemented with 10% (v/v) FBS, 100 mg/L penicillin, and 100 mg/L streptomycin in 5% CO2 at 37 °C. For transient transfection, ~2.5 × 10^6 cells were mixed with 2 µg plasmids in 200 µL transfection buffer, and electroporation was carried out with a Scientz-2C electroporation apparatus (Scientz Biotech, Ningbo, China). The experiments were carried out 24 h after transfection.
# (§3) For QRFPR, PrRPR, and KISS1R, HEK293 cells transfected with WT receptor or its mutants were seeded at a density of 4 × 10^4 per well into 96-well culture plates and incubated for 24 h at 37 °C in 5% CO2. For NPFF1R and NPFF2R, plasmids were transfected into HEK293 cells stably expressing Gα16. On the next day, cells were incubated with 2 μmol/L Fluo-4 AM in HBSS supplemented with 5.6 mmol/L D-glucose and 250 μmol/L sulfinpyrazone at 37 °C for 45 min. After washing, cells were added with 50 μL HBSS and incubated at room temperature for 10 min, then 25 μL agonist buffer was dispensed into the well using a FlexStation III microplate reader (Molecular Devices), and intracellular calcium change was recorded at an excitation wavelength of 485 nm and an emission wavelength of 525 nm. EC50 and Emax values for each curve were calculated by Prism 8.0 software (GraphPad Software).
# QRFPR mutants [2] = molecular target: T2, QRFPR mutants (Homo sapiens, UniProt Q96P65, L193A)
# T2 construct: expressed in transfected cells; host or cells: HEK293, transient transfection by electroporation
# T2 sequence (Q96P65 whole entry L193A): as the sequence (Q96P65 whole entry D307A) above, with L193A, A307D counted along it
# Method: as §1, §2, §3
# QRFPR mutants [3] = molecular target: T3, QRFPR mutants (Homo sapiens, UniProt Q96P65, C118A); details: HEK293, QRFPR C118^3.25A; HEK293, Fluo-4; mean ± S.E.M., n ≥ 3
# T3 construct: expressed in transfected cells; host or cells: HEK293, transient transfection by electroporation
# T3 sequence (Q96P65 whole entry C118A): as the sequence (Q96P65 whole entry D307A) above, with C118A, A307D counted along it
# Method: as §1, §2, §3
# QRFPR mutants [4] = molecular target: T4, QRFPR mutants (Homo sapiens, UniProt Q96P65, I199A); details: HEK293, QRFPR I199^ECL2A; HEK293, Fluo-4; mean ± S.E.M., n ≥ 3
# T4 construct: expressed in transfected cells; host or cells: HEK293, transient transfection by electroporation
# T4 sequence (Q96P65 whole entry I199A): as the sequence (Q96P65 whole entry D307A) above, with I199A, A307D counted along it
# Method: as §1, §2, §3
# QRFPR mutants [5] = molecular target: T5, QRFPR mutants (Homo sapiens, UniProt Q96P65, Q318A); details: HEK293, QRFPR Q318^7.39A; HEK293, Fluo-4; mean ± S.E.M., n ≥ 3
# T5 construct: expressed in transfected cells; host or cells: HEK293, transient transfection by electroporation
# T5 sequence (Q96P65 whole entry Q318A): as the sequence (Q96P65 whole entry D307A) above, with A307D, Q318A counted along it
# Method: as §1, §2, §3
# QRFPR mutants [6] = molecular target: T6, QRFPR mutants (Homo sapiens, UniProt Q96P65, S126A); details: HEK293, QRFPR S126^3.33A; HEK293, Fluo-4; mean ± S.E.M., n ≥ 3
# T6 construct: expressed in transfected cells; host or cells: HEK293, transient transfection by electroporation
# T6 sequence (Q96P65 whole entry S126A): as the sequence (Q96P65 whole entry D307A) above, with S126A, A307D counted along it
# Method: as §1, §2, §3
# QRFPR mutants [7] = molecular target: T7, QRFPR mutants (Homo sapiens, UniProt Q96P65, Y190A); details: HEK293, QRFPR Y190^ECL2A; HEK293, Fluo-4; mean ± S.E.M., n ≥ 3
# T7 construct: expressed in transfected cells; host or cells: HEK293, transient transfection by electroporation
# T7 sequence (Q96P65 whole entry Y190A): as the sequence (Q96P65 whole entry D307A) above, with Y190A, A307D counted along it
# Method: as §1, §2, §3
# QRFPR mutants [8] = molecular target: T8, QRFPR mutants (Homo sapiens, UniProt Q96P65, C201A); details: HEK293, QRFPR C201^ECL2A; HEK293, Fluo-4; mean ± S.E.M., n ≥ 3
# T8 construct: expressed in transfected cells; host or cells: HEK293, transient transfection by electroporation
# T8 sequence (Q96P65 whole entry C201A): as the sequence (Q96P65 whole entry D307A) above, with C201A, A307D counted along it
# Method: as §1, §2, §3
# QRFPR mutants [9] = molecular target: T9, QRFPR mutants (Homo sapiens, UniProt Q96P65, W286A); details: HEK293, QRFPR W286^6.48A; HEK293, Fluo-4; mean ± S.E.M., n ≥ 3
# T9 construct: expressed in transfected cells; host or cells: HEK293, transient transfection by electroporation
# T9 sequence (Q96P65 whole entry W286A): as the sequence (Q96P65 whole entry D307A) above, with W286A, A307D counted along it
# Method: as §1, §2, §3
# QRFPR mutants [10] = molecular target: T10, QRFPR mutants (Homo sapiens, UniProt Q96P65, T102A); details: HEK293, QRFPR T102^2.60A; HEK293, Fluo-4; mean ± S.E.M., n ≥ 3
# T10 construct: expressed in transfected cells; host or cells: HEK293, transient transfection by electroporation
# T10 sequence (Q96P65 whole entry T102A): as the sequence (Q96P65 whole entry D307A) above, with T102A, A307D counted along it
# Method: as §1, §2, §3
# QRFPR mutants [11] = molecular target: T11, QRFPR mutants (Homo sapiens, UniProt Q96P65, H290A); details: HEK293, QRFPR H290^6.52A; HEK293, Fluo-4; mean ± S.E.M., n ≥ 3
# T11 construct: expressed in transfected cells; host or cells: HEK293, transient transfection by electroporation
# T11 sequence (Q96P65 whole entry H290A): as the sequence (Q96P65 whole entry D307A) above, with H290A, A307D counted along it
# Method: as §1, §2, §3
# QRFPR mutants [12] = molecular target: T12, QRFPR mutants (Homo sapiens, UniProt Q96P65, F289L)
# T12 construct: expressed in transfected cells; host or cells: HEK293, transient transfection by electroporation
# T12 sequence (Q96P65 whole entry F289L): as the sequence (Q96P65 whole entry D307A) above, with F289L, A307D counted along it
# Method: as §1, §2, §3
# QRFPR mutants [13] = molecular target: T13, QRFPR mutants (Homo sapiens, UniProt Q96P65, Q105A); details: HEK293, QRFPR Q105^2.63A; HEK293, Fluo-4; mean ± S.E.M., n ≥ 3
# T13 construct: expressed in transfected cells; host or cells: HEK293, transient transfection by electroporation
# T13 sequence (Q96P65 whole entry Q105A): as the sequence (Q96P65 whole entry D307A) above, with Q105A, A307D counted along it
# Method: as §1, §2, §3
# QRFPR mutants [14] = molecular target: T14, QRFPR mutants (Homo sapiens, UniProt Q96P65, E297A)
# T14 construct: expressed in transfected cells; host or cells: HEK293, transient transfection by electroporation
# T14 sequence (Q96P65 whole entry E297A): as the sequence (Q96P65 whole entry D307A) above, with E297A, A307D counted along it
# Method: as §1, §2, §3
# QRFPR mutants [15] = molecular target: T15, QRFPR mutants (Homo sapiens, UniProt Q96P65, Q211A); details: HEK293, QRFPR Q211^5.35A; HEK293, Fluo-4; mean ± S.E.M., n ≥ 3
# T15 construct: expressed in transfected cells; host or cells: HEK293, transient transfection by electroporation
# T15 sequence (Q96P65 whole entry Q211A): as the sequence (Q96P65 whole entry D307A) above, with Q211A, A307D counted along it
# Method: as §1, §2, §3
# QRFPR mutants [16] = molecular target: T16, QRFPR mutants (Homo sapiens, UniProt Q96P65, L202A); details: HEK293, QRFPR L202^45.51A; HEK293, Fluo-4; mean ± S.E.M., n ≥ 3
# T16 construct: expressed in transfected cells; host or cells: HEK293, transient transfection by electroporation
# T16 sequence (Q96P65 whole entry L202A): as the sequence (Q96P65 whole entry D307A) above, with L202A, A307D counted along it
# Method: as §1, §2, §3
# QRFPR mutants [17] = molecular target: T17, QRFPR mutants (Homo sapiens, UniProt Q96P65, F192A); details: HEK293, QRFPR F192^ECL2A; HEK293, Fluo-4; mean ± S.E.M., n ≥ 3
# T17 construct: expressed in transfected cells; host or cells: HEK293, transient transfection by electroporation
# T17 sequence (Q96P65 whole entry F192A): as the sequence (Q96P65 whole entry D307A) above, with F192A, A307D counted along it
# Method: as §1, §2, §3
substance,measurement,setting,value
ASGPLGTLAEELSSYSRRKGGFSFRF-NH2 [26RFa],Emax,QRFPR mutants [1],106 ± 0.64%
same,Emax,"QRFPR mutants [2]; HEK293, QRFPR L193^ECL2A, HEK293, Fluo-4, mean ± S.E.M., n ≥ 3",66.8 ± 0.54%
same,effect of mutation on peptide activity,QRFPR mutants [2]; QRFPR L193A,remarkable decline in peptide activity
same,Emax,QRFPR mutants [3],1.43 ± 0.55%
same,Emax,QRFPR mutants [4],89.7 ± 2.3%
same,Emax,QRFPR mutants [5],1.69 ± 0.66%
same,Emax,QRFPR mutants [6],92.3 ± 4.1%
same,Emax,QRFPR mutants [7],23.6 ± 0.22%
same,Emax,QRFPR mutants [8],1.84 ± 1.5%
same,Emax,QRFPR mutants [9],1.8 ± 0.38%
same,Emax,QRFPR mutants [10],94 ± 1.4%
same,Emax,QRFPR mutants [11],60.4 ± 0.39%
same,Emax,"QRFPR mutants [12]; HEK293, QRFPR F289^6.51L, HEK293, Fluo-4, mean ± S.E.M., n ≥ 3",112 ± 5.1%
same,effect of mutation on 26RFa activity,QRFPR mutants [12]; QRFPR F289^6.51 to leucine,did not impact the 26RFa activity
same,Emax,QRFPR mutants [13],83.8 ± 3.1%
same,Emax,"QRFPR mutants [14]; HEK293, QRFPR E297^6.59A, HEK293, Fluo-4, mean ± S.E.M., n ≥ 3",107 ± 0.8%
same,effect of mutation on 26RFa activity,QRFPR mutants [14]; QRFPR 6.59 to alanine (printed D^6.59),almost did not affect 26RFa activity
same,Emax,QRFPR mutants [15],94.9 ± 1.6%
same,Emax,QRFPR mutants [16],101 ± 2.3%
same,Emax,QRFPR mutants [17],87.4 ± 0.93%
